Data as given in ChEMBL document CHEMBL1201862, “PubChem BioAssay data set” (2004).
The source made the active and inactive calls.

What was measured:
[1] = molecular target: T1, fMet-Leu-Phe receptor (Homo sapiens, UniProt P21462); test: FPR ligands, dose response (AID 519); type: functional
T1 sequence (P21462 whole entry): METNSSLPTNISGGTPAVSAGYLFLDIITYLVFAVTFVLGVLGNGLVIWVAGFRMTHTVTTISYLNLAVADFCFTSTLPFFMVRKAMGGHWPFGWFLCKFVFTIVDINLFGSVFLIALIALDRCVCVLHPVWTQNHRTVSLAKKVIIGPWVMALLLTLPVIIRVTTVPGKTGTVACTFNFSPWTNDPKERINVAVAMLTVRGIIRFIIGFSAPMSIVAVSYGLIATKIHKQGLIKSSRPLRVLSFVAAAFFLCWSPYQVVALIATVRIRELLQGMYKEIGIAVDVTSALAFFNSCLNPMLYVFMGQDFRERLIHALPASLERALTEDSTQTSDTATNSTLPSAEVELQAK

[2] = cytotoxicity toward Colo320 cells – cell-based, CellTiter-Glo luminescence, IC50, dose response (AID 1117334); type: functional; conditions: COLO 320
[3] = HCT116 cell viability decrease, GSK3B pretreatment – CellTiter-Glo, IC50, dose response (AID 1117339); type: functional; conditions: HCT-116
[4] = cytotoxicity toward HT-29 cells – cell-based, CellTiter-Glo luminescence, IC50, dose response (AID 1117330); type: functional
[5] = RKO cell viability reduction, dose response, CellTiter-Glo luminescence (AID 1117322); type: functional
[6] = HeLa 4N DNA content increase, dose response, cell-based, IC50 (AID 1117351); type: functional
[7] = CellTiter-Glo luminescent dose response of DLD-1 viability loss (AID 1117352); type: functional
[8] = HeLa 2N DNA content increase, dose response, cell-based, IC50 (AID 1117349); type: functional
[9] = cytotoxicity toward HCT116 cells – cell-based, CellTiter-Glo luminescence, IC50, dose response (AID 1117332); type: functional; conditions: HCT-116
[10] = SNU-C1 cell viability reduction, dose response, CellTiter-Glo luminescence (AID 1117323); type: functional, cell-based
[11] = P. falciparum Dd2 growth inhibitors, dose response, SYBR Green, dry powder samples, set 9 (AID 1159568); type: functional, cell-based
[12] = molecular target: T2, Oxysterols receptor LXR-beta (Homo sapiens, UniProt P55055); type: functional, cell-based;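 also: Cell-based luminescence dose-response assay of agonist activity at LXR, run as a confirmatory counterscreen to a daf-12 agonist screen; HEK293 cells with Gal4-LXR fusion and GAL4-driven luciferase reporter; agonist potency from rising luciferase signal of a Gal4-LXR reporter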
T2 sequence (P55055 whole entry): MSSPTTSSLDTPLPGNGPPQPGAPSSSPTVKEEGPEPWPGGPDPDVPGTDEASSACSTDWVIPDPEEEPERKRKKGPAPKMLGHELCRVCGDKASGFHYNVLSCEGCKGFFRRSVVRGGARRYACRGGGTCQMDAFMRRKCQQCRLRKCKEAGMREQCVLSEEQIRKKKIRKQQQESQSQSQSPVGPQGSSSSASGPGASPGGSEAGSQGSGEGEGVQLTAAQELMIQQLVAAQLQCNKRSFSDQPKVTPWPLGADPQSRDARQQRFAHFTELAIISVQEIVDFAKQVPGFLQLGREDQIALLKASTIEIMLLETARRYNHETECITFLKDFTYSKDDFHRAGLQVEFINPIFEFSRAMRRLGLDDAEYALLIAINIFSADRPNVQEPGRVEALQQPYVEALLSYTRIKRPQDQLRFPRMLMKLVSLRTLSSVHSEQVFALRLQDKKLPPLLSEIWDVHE

[13] = cells
[14] = molecular target: Disintegrin and metalloproteinase domain-containing protein 17 (Homo sapiens, UniProt P78536); test: ADAM17 protease inhibitors, dose response, counter-screen for ADAM10 exosite inhibitor project, biochemical, quenched FRET substrate (AID 743253)
[15] = system: Streptococcus; test: Group A Streptococcus viability loss, dose response, counter-screen for streptokinase expression inhibitor project, luminescence, BacTiterGlo (AID 1915); type: functional, organism-based;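 also: potency for reduction of bacterial viability or growth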
[16] = molecular target: T3, Streptokinase A (Streptococcus pyogenes serotype M1, UniProt P10520); test: S. pyogenes streptokinase expression inhibitors, potency, dose response, plasminogen activation absorbance, OD405 (AID 1914); type: functional, Streptococcus pyogenes M1 GAS;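 also: secreted streptokinase activity via plasminogen activation per viability signal from cell pellet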
T3 sequence (P10520 whole entry): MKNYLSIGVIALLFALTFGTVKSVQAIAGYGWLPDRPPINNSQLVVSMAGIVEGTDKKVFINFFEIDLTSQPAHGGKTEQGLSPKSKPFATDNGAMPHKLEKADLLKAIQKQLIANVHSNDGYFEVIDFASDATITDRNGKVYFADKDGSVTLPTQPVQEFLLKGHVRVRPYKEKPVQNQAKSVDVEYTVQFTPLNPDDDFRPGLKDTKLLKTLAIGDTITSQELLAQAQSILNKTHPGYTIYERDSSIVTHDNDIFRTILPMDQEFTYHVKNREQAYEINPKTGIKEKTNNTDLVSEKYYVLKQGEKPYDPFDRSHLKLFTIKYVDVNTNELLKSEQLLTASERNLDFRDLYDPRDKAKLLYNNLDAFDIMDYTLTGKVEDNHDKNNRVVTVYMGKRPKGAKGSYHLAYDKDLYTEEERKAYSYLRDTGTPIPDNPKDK

[17] = system: Streptococcus sp. 'group A'; test: growth inhibition of control SK(-) GAS strain, dose response, counter-screen for streptokinase expression inhibitor project, luminescence, kanamycin, BacTiterGlo, confirmation (AID 1900); type: functional, organism-based

Sequence of Disintegrin and metalloproteinase domain-containing protein 17 (P78536 whole entry, the tested form may be a part): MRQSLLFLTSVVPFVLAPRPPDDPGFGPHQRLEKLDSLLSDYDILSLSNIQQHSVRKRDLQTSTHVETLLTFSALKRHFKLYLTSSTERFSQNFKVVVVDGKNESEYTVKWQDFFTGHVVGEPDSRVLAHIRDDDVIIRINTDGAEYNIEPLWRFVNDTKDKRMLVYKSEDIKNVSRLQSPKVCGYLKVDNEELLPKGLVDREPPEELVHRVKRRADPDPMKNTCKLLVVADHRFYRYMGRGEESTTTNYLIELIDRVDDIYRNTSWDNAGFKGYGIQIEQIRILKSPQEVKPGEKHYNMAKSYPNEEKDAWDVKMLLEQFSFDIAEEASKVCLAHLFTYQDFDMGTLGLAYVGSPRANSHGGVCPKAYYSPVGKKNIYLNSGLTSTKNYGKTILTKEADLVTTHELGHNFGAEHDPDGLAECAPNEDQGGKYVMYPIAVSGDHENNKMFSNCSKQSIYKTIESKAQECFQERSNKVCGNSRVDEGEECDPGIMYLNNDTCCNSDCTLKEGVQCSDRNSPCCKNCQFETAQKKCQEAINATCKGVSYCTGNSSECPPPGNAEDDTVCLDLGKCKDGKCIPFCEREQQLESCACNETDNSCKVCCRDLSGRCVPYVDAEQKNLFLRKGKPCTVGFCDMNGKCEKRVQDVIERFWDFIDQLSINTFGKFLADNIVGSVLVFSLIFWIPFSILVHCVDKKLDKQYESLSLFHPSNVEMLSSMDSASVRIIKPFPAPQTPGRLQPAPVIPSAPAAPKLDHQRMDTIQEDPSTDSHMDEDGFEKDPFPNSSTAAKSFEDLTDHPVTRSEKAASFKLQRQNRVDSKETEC

CC1=C(C#N)C(c2ccc3ncccc3c2)C(C#N)=C(C)N1
Ki [1]: > 66.7 µM (inactive)

Nc1nc(Cl)nc2c1ncn2[C@@H]1O[C@H](CO)[C@@H](O)[C@@H]1F [CLOFARABINE]
IC50 [2]: > 20 µM (inactive) | IC50 [3]: 0.001 µM (active) | IC50 [4]: > 20 µM (inactive) | IC50 [5]: 0.001 µM (active) | IC50 [6]: > 10 µM (inactive) | IC50 [7]: 0.164 µM (active) | IC50 [8]: > 10 µM (inactive) | IC50 [9]: 0.001 µM (active) | IC50 [10]: > 20 µM (inactive)

O=C(C[C@@H]1C[C@H]2c3cc(NC(=O)c4ccc5c(c4)OCO5)ccc3O[C@H]2[C@H](CO)O1)NCc1ccc(Oc2ccccc2)cc1
AC50 [11]: 25.6 µM (active)

O=C1C(/C=N/Cc2ccco2)=C(O)c2ccccc21
EC50 [12]: > 67.5 µM (inactive) | EC50 [13]: > 67.5 µM (inactive)

CCc1ccc(NC(=O)c2ccc(F)c(S(=O)(=O)NCC3COc4ccccc4O3)c2)cc1 (configuration not stated)
IC50 [14]: > 69.5 µM (inactive) | EC50 [15]: 18.4 µM (active) | EC50 [16]: 35.2 µM (active) | EC50 [17]: 10.7 µM (active)
